“Also recorded” adds a separate entry of the source.
Experiments:
[1] = target: M. mazei PylRS (wild-type) (Methanosarcina mazei, UniProt Q8PWY1); type: biochemical; conditions: 37 degrees Celsius 1 h; 0.5 M Lys; 100 mM Ac-Lys; 1 mM Boc-Lys; 1 mM Aloc-Lys; 10 mM Nic-Lys; 7 mM Nma-Lys; 3.5 mM Z-Lys; 1 mM pyrrolysine
[2] = tested on: GST gene with amber codon (TAG) at the 25th from N terminus, E. coli BL21 (DE3); type: cell-based; conditions: for expression of 28-kDa GST protein: mutant PylRS (Y384F) and tRNA^Pyl, 4 mM amino acid; for incorporation into a protein with wild-type PylRS: E. coli cells
From the text: In order to confirm whether amber suppression (amber mutation suppression) occurs in E. coli cells, the glutathione S-transferase (GST) gene whose tyrosine codon at the 25th from N terminus was mutated to the amber codon (TAG) was cloned into a pET system plasmid. On the other hand, the wild-type and a variety of mutant PylRS genes, as well as tRNA^Pyl genes were cloned into a pACYX system plasmid (see FIG. 6). These two expression vectors were transformed to E. coli BL21 (DE3) to statically culture overnight on LB agar medium including kanamycin and ampicillin. […] Incubation was conducted overnight to induce expression before E. coli cells were harvested to detect expressed GST using SDS-PAGE. […] (SEQ ID NO: 17) (m/z=1327.72 Da) (see FIG. 10).
The same plasmid pTK2-1 as Example 1 was used for expressing PylRS mutant with double amino acid substitutions of Y306A and Y384F and tRNA^Pyl in E. coli cells. Incorporation of a lysine derivative into GST having amber codon at 25th from its N-terminus using this plasmid was performed according to the same method as Example 1. Moreover, specific incorporation of AzZLys [purchased from Shinsei Chemical Company Ltd. (Osaka)] into the amber site in GST using the same plasmid was also performed according to the same method as Example 1. Subsequently, crude extract obtained from E. coli cells in which the GST amber gene was expressed was separated with SDS-PAGE and stained. […] Furthermore, purification of GST was performed with the same method as Example 1.

[3] = tested on: GRB2 amber gene, HEK c-18 cell
From the text: (§1) For expressing PylRS (Y306A, Y384F) mutant and tRNA^P1 in HEK c-18 cell, the system disclosed in the above-mentioned Non-Patent Document 7 was used. Likewise, the mutant gene into which the amber codon was incorporated at the cording region of lac Z gene and GRB2 gene, and the expression system thereof, as disclosed in the above-mentioned Non-Patent Document 7, were used.

[4] = tested on: GST; conditions: FITC-PP3; ca. 37 degrees Celsius for 1 hour (not at ca. 4 degrees Celsius overnight)
Method: A conjugate of fluorophore and triarylphosphine, and the purified full length GST were linked by Staudinger-Bertozzi reaction. As a conjugate, the conjugate with FITC (hereinafter referred to as FITC-PP3) (purchased from Shinsei Chemical Company Ltd.) was used. […] Linkage reaction was performed under two types of reactive conditions, i.e., at ca. 37 degrees Celsius for 1 hour (lhr) and at ca. 4 degrees Celsius overnight (O/N). Subsequently, these GST were separated by SDS-PAGE to detect fluorescence with UV light. […] As to the Staudinger-Bertozzi reaction, see the above-mentioned Non-Patent Documents 5, 6, etc.

[5] = tested on: lacZ amber gene, HEK c-18 cell
From the text: as §1
First, in the animal cells, optimal concentration of AzLys for site-specific incorporation of AzLys into the protein was determined. In media containing 0, 0.01, 0.025, 0.05, 0.1, 0.25 and 0.5 mM of AzZLys, LacZ protein was expressed from the lacZ amber gene to determine the level of expression (relative value) of LacZ with coloring reaction by LacZ. […] In FIG. 17, WT represents the level of expression (relative value) of wild-type (WT) lacZ without any amber codon in the coding region.

Sequence of M. mazei PylRS (wild-type) (Q8PWY1 whole entry E444G, looked up): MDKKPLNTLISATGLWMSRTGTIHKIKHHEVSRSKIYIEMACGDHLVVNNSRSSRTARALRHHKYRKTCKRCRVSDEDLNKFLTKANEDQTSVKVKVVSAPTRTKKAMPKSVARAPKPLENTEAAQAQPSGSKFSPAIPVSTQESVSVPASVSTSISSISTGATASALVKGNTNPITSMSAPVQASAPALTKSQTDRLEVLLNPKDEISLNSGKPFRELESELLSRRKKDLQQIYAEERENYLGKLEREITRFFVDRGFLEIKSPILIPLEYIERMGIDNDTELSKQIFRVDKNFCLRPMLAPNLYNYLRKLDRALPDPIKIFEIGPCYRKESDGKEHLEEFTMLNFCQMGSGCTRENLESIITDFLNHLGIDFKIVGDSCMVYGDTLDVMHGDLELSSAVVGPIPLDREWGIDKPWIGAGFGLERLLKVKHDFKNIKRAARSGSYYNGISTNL

CC(=O)NCCCC[C@H](N)C(=O)O [Ac-Lys, N^ε-acetyl-L-lysine]
activation of amino acid / esterification of tRNA^Pyl by wild-type PylRS [1]: esterified

C=CCOC(=O)N[C@@H](CCCCN)C(=O)O [Aloc-Lys, allyloxycarbonyl-lysine]
expression of 28-kDa GST protein [2]: expressed | activation of amino acid / esterification of tRNA^Pyl by wild-type PylRS [1]: activated at a concentration of 1 mM, as efficiently as pyrrolysine

[N-]=[N+]=Nc1ccc(C[C@H](N)C(=O)O)cc1 [AzF, para-azide-phenylalanine]
Grb2 modified with fluorescence ([3]; AzFRS system, AzFRS also modified with fluorescence concurrently): modified with fluorescence

[N-]=[N+]=Nc1ccccc1COC(=O)NCCCC[C@H](N)C(=O)O [AzZLys, N^ε-Ortho-Azide-Benzyloxycarbonyl-Lysine]
fluorescence-modified GST [4]: detected merely in the case of the reactive condition at ca. 37 degrees Celsius for 1 hour | Grb2 protein labeled with fluorescence ([3]; PylRS (Y306A, Y384F), tRNA^Pyl, FITC-PP3): detected merely in the case of aaRS (+), Grb2 (Am), tRNA (+) and a.a. (+) | expression of the full length GST ([2]; PylRS mutant Y306A and Y384F and tRNA^Pyl, 1 mM AzZLys): detected merely in the case of the presence of 1 mM AzZLys | suppression efficiency (LacZ expression relative to wild-type lacZ) ([5]; PylRS (Y306A, Y384F) and tRNA^Pyl, 0.05 mM AzZLys): approximately 30 % of WT | concentration at which most efficiently incorporated into the amber site of lacZ ([5]; tested 0, 0.01, 0.025, 0.05, 0.1, 0.25 and 0.5 mM): 0.05 mM

CC(C)(C)OC(=O)N[C@@H](CCCCN)C(=O)O [Boc-Lys, tert-butyloxycarbonyl-lysine]
expression of 28-kDa GST protein [2]: expressed | incorporation into a protein with wild-type PylRS [2]: could not efficiently be incorporated | activation of amino acid / esterification of tRNA^Pyl by wild-type PylRS [1]: activated at a concentration of 1 mM, as efficiently as pyrrolysine

CNc1ccccc1C(=O)NCCCC[C@H](N)C(=O)O [Nma-Lys, N^ε-(N-methyl-anthraniloyl)-L-lysine]
activation of amino acid / esterification of tRNA^Pyl by wild-type PylRS [1]: esterified

N[C@@H](CCCCNC(=O)OCc1ccccc1)C(=O)O [Z-Lys, N^ε-benzyloxycarbonyl-L-lysine]
production of full length GST protein ([2]; double mutant PylRS (Y384F/Y306A) and tRNA^Pyl, 5 mM Z-Lys): produced | incorporation into a protein with wild-type PylRS [2]: cannot be incorporated into a protein | activation of amino acid / esterification of tRNA^Pyl by wild-type PylRS [1]: merely weakly activated; also recorded: esterified

C[C@@H]1CC=N[C@H]1C(=O)NCCCC[C@H](N)C(=O)O [pyrrolysine, N^6-[(2R,3R)-3-methyl-3,4-dihydro-2H-pyrrole-2-ylcarbonyl]-L-lysine]
activation of amino acid / esterification of tRNA^Pyl by wild-type PylRS [1]: activates

Source: US9133449B2, “Mutant pyrrolysyl-tRNA synthetase, and method for production of protein having non-natural amino acid integrated therein by using the same” (priority 2007, dated 2015)
